Measured values published in US10786475B2, “Method for preventing, treating, or improving fatty liver by administering effective amounts of azelaic acid to a subject” (Korea University Research and Business Foundation, priority 2018, dated 2020).

Columns and labels:
[1] = test system: fatty liver-induced mouse; experiment: Fatty liver inhibitory effect in high-fat diet fatty liver-induced wild-type C57BL/6J mouse; format: in vivo; conditions: WT mouse
Description: Mice used in the example, which were an eight-week-old C57BL/6J model, were purchased from Samtako, and Olfr544 KO mice were manufactured by Macrogen based on the C57BL/6J model using a CRISPR/Cas9 system. All experiments performed in the example are compliant to a protocol approved by the Animal Experiment Ethics Committee at Korea University (Protocol No. KUIACUC-20170322-1). The mice were acclimated at 21 to 25° C. under a 50 to 60% relative humidity condition for 12 hours before being used in the experiments, and a total of 18 mice were treated with an AzA diluted with distilled water at 50 mg/kg of body weight and distilled water as a control through oral administration for 6 weeks. The mice used in the experiments were fed a high-fat diet containing 60% fat (D12492, Research Diets, Inc) to induce fatty liver, and then a body weight was measured every week.
The measurement of the concentration of triglycerides in liver tissue was performed by homogenizing the obtained liver tissue of a mouse in 600 μL of acetone (Daejung, Korea), storing the homogenate at 4° C. for 24 hours, and obtaining a fat part by centrifugation at 12000 rpm for 10 minutes. The fat part was dried, dissolved in 95% ethanol, quantified using a Cobas C11 autoanalyzer (Roche, Basel, Switzerland), and normalized with a liver weight.
RNA was extracted from liver tissue, and the expression of PPARα and PPARα downstream genes such as Acox1, Cpt1a and Hmgcs2 were analyzed by qPCR according to the method of Example 3-1 described above.
To evaluate fatty acid oxidation, 100 mg of liver tissue was homogenized in a 0.25 M cold sucrose solution, centrifuged at 600 rpm and 4° C. thereby obtaining a supernatant, and then 50 μL of 10% Triton X-100 was added to 450 μL of the supernatant. Subsequently, 5 μL of the sample was mixed with 950 μL of 50 mM Tris-HCl, 10 μL of 20 mM NAD, 3 μL of 0.33 M dithiothreitol, 5 μL of 1.5% BSA, 5 μL of 2% Triton X-100, 10 μL of 10 mM CoA, and 10 μL of 1 mM FAD. The mixture was mixed with 2 μL of 5 mM palmitoyl-CoA, reacted at 37° C. and analyzed at 340 nm for 5 minutes using a spectrophotometer.
A C57BL/6J mouse and an Olfr544 KO mouse were treated with HFD and an AzA for 6 weeks and housed in a metabolic cage for three days, and the result at day 3 was analyzed as an experimental result. An oxygen consumption amount (VO2) and a carbon dioxide production amount (VCO2) were analyzed using an Oxylet Physiocage System (Panlab/Harvard apparatus, Cornella, Spain) and suiteMETABOLISM (V2.2.01, Panlab) software. A respiratory quotient (RQ) was calculated using the formula VCO2/VO2, and energy expenditure was analyzed using the formula EE=VO2×1.11×(3.815+1.232×RQ). The oxidation of a free fatty acid was calculated using the formula (1.6946×VO2)−(1.7012×VCO2).
An AzA (100 mg/kg) was intraperitoneally administered, and then concentration of a glycerol, which is a body fat decomposition marker, was measured. […] To measure glucose resistance and insulin resistance, a glucose and insulin resistance test was performed under a condition, in which glucose ([…]) and insulin (0.35 unit/kg/bw) are administered to a mouse.

[2] = test system: 3T3-L1 cells stimulated by LPS; experiment: GPCR 10-pathway reporter assay in LPS-induced 3T3-L1 cells; format: cell-based, mouse; conditions: 100 ng/mL LPS 1 hour, 50 μM AzA 6 hours
Description: 3T3-L1 cells, mouse pre-adipose cells were purchased from the Korean Cell Line Bank (Seoul, Korea). The 3T3-L1 cells were cultured in Dulbecco's modified Eagle's medium (DMEM) supplemented with 10% heat-inactivated bovine calf serum (Gibco, Grand Island, N.Y., USA) and 1% PEST under 5% CO2 at 37° C. The 3T3-L1 pre-adipose cells were seeded on a 6-well plate at 1×10^6 cells/well to differentiate into adipose cells, and cultured to a density of 100%. After 2 days, the cultured 3T3-L1 pre-adipose cells were incubated in DMEM containing 10% fetal bovine serum (FBS) and an MDI solution (0.5 mM IBMX, 0.5 μM dexamethasone and 10 μg/mL insulin) for 3 days. Subsequently, the treated cells were cultured in DMEM containing 10% FBS and 10 μg/mL insulin, and the formation of lipid droplets in cells and the degree thereof were confirmed, and based on this, the differentiation into adipose cells was confirmed.
3T3-L1 adipose cells were seeded on a 96 well-plate at 1×10^4 cells/well and cultured for 24 hours, and transfected with a construct including a transcription factor promoter and a luciferase for 8 hours. […]
To confirm a mechanism of an anti-inflammatory effect of an AzA, 10 transcription factors for signal transduction of GPCR were analyzed by the same method as described in Example 7-3.

[3] = HFD and AzA for 6 weeks, metabolic cage day 3
[4] = high-fat diet, AzA 50 mg/kg oral, 6 weeks
[5] = high-fat diet, AzA 50 mg/kg oral, 6 weeks, compared with control group

What does the source list for `O=C(O)CCCCCCCC(=O)O` [AzA, nonanedioic acid]?
glucose resistance (glucose resistance test) [1]: significantly improved; insulin resistance (insulin resistance test) [1]: significantly improved; abdominal fat (microCT) ([1]; AzA 50 mg/kg/day): significantly decreased; total fat amount (microCT) ([1]; AzA 50 mg/kg/day): significantly decreased; blood glycerol concentration (body fat decomposition marker) ([1]; AzA 100 mg/kg intraperitoneally): stimulated the decomposition of body fats; oxidation of free fatty acids (indirect calorimetric analysis) [1, 3]: increase; respiratory quotient (indirect calorimetric analysis) [1, 3]: decrease; expression of PPARα and a target gene thereof in liver tissue [1, 4]: significantly increased; triglyceride concentration in liver tissue [1, 4]: decreased; body weight [1, 5]: decreased; fatty acid oxidation rate in liver tissue [1, 5]: increased; FOXO transcription factor activity (PI-3 Kinase/AKT pathway) [2]: significant activity
